Data: the supplement of paper PMC11208160

Assay: recombinant UMI read abundance after kanamycin selection (control-corrected) (log10(CPM+1)); higher = more efficient recombination; extreme values may be limits of the assay; sequences stand for … in AGTGCAGAGAAAATCGGCCAGTTTTCTCTGCCTGCAGTCCGCATGCCGTGGGACCCCTTGGGTTCTAACCTGTTGCCTAGATTTATGCAGCGGACTGCCTTTCTCCCAAAGTGATAAACCGG…AGGTTGGTTTCACT; site = the 11-nt donor
Outline: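 In a pooled Escherichia coli screen for the IS621 bridge recombinase, donor and donor-binding-loop pairs were each placed with a 12-nt UMI on a plasmid bearing a promoterless kanamycin gene. This library was co-electroporated with a target plasmid encoding a fixed target and T7-inducible recombinase, and cells were plated either on IPTG (0.07 mM) plus kanamycin or without selection, in two replicates each. Recombinant UMIs were PCR-amplified across the donor–target junction and sequenced, and counts were converted to CPM, averaged over replicates, scaled by control-derived factors and reported as log10(CPM+1).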
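Note: IS621 bridge recombinase in Escherichia coli cells against a fixed T5 target plasmid.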

CTACTAACATGGACCGGTTTTCCCGGTAATCCGTATTTGTA (site CTACTAACTTC)
recombinant UMI read abundance (log10): 0.53

CTACTAACATGGACCGGTTTTCCCGGTAATCCGTATTTGTA (site CTACTAACTTG)
recombinant UMI read abundance (log10): 1.51

CTACTAACATGGACCGGTTTTCCCGGTAATCCGTATTTGTA (site CTACTAACTTT)
recombinant UMI read abundance (log10): 1.92

CTACTCACATGGACCGGTTTTCCCGGTAATCCGTATTTGGG (site CTACTCACTCC)
recombinant UMI read abundance (log10): 0.286

CTACTCCCATGGACCGGTTTTCCCGGTAATCCGTATTTGGC (site CTACTCCCTGC)
recombinant UMI read abundance (log10): 1.59

CTACTCTCATGGACCGGTTTTCCCGGTAATCCGTATTTGTA (site CTACTCTCTTA)
recombinant UMI read abundance (log10): 3.26

CTACTCTCATGGACCGGTTTTCCCGGTAATCCGTATTTGTA (site CTCCTCTCTTA)
recombinant UMI read abundance (log10): 1.19

CTACTCTCATGGACCGGTTTTCCCGGTAATCCGTATTTGTA (site CTGCTCTCTTA)
recombinant UMI read abundance (log10): 1.32

CTACTCTCATGGACCGGTTTTCCCGGTAATCCGTATTTGTA (site CTTCTCTCTTA)
recombinant UMI read abundance (log10): 1.42

CTACTGTCATGGACCGGTTTTCCCGGTAATCCGTATTTGTA (site CTACTGTCTTA)
recombinant UMI read abundance (log10): 3.13

CTAGGTACATGGACCGGTTTTCCCGGTAATCCGTATTTGAC (site ATAGGTACTGT)
recombinant UMI read abundance (log10): 0

CTAGGTACATGGACCGGTTTTCCCGGTAATCCGTATTTGAC (site CTAGGTACTGT)
recombinant UMI read abundance (log10): 2.1

CTAGGTACATGGACCGGTTTTCCCGGTAATCCGTATTTGAC (site GTAGGTACTGT)
recombinant UMI read abundance (log10): 0

CTAGGTACATGGACCGGTTTTCCCGGTAATCCGTATTTGAC (site TTAGGTACTGT)
recombinant UMI read abundance (log10): 0

CTAGTAACATGGACCGGTTTTCCCGGTAATCCGTATTTGAG (site CTAGTAACTCT)
recombinant UMI read abundance (log10): 2.89

CTAGTAACATGGACCGGTTTTCCCGGTAATCCGTATTTGAG (site CTAGTATCTGT)
recombinant UMI read abundance (log10): 0

CTAGTAACATGGACCGGTTTTCCCGGTAATCCGTATTTGTC (site CTAGTAACTGA)
recombinant UMI read abundance (log10): 2.78

CTAGTAACATGGACCGGTTTTCCCGGTAATCCGTATTTGTC (site CTAGTATCTGT)
recombinant UMI read abundance (log10): 0

CTAGTACCATGGACCGGTTTTCCCGGTAATCCGTATTTGAC (site CTAGTAACTGT)
recombinant UMI read abundance (log10): 0

CTAGTACCATGGACCGGTTTTCCCGGTAATCCGTATTTGAC (site CTAGTACCTGT)
recombinant UMI read abundance (log10): 0

CTAGTACCATGGACCGGTTTTCCCGGTAATCCGTATTTGAC (site CTAGTAGCTGT)
recombinant UMI read abundance (log10): 0.415

CTAGTACCATGGACCGGTTTTCCCGGTAATCCGTATTTGAC (site CTAGTATCTGT)
recombinant UMI read abundance (log10): 2.88

CTAGTATCATGGACCGGTTTTCCCGGTAATCCGTATTTGAA (site CTAGTATCTAT)
recombinant UMI read abundance (log10): 2.59

CTAGTATCATGGACCGGTTTTCCCGGTAATCCGTATTTGAA (site CTAGTATCTCT)
recombinant UMI read abundance (log10): 2.4

CTAGTATCATGGACCGGTTTTCCCGGTAATCCGTATTTGAA (site CTAGTATCTGT)
recombinant UMI read abundance (log10): 1.91

CTAGTATCATGGACCGGTTTTCCCGGTAATCCGTATTTGAA (site CTAGTATCTTT)
recombinant UMI read abundance (log10): 2.92

CTAGTATCATGGACCGGTTTTCCCGGTAATCCGTATTTGAG (site CTAGTATCTAT)
recombinant UMI read abundance (log10): 2.35

CTAGTATCATGGACCGGTTTTCCCGGTAATCCGTATTTGAG (site CTAGTATCTCT)
recombinant UMI read abundance (log10): 2.61

CTAGTATCATGGACCGGTTTTCCCGGTAATCCGTATTTGAG (site CTAGTATCTGT)
recombinant UMI read abundance (log10): 1.68

CTAGTATCATGGACCGGTTTTCCCGGTAATCCGTATTTGAG (site CTAGTATCTTT)
recombinant UMI read abundance (log10): 2.29

CTAGTATCATGGACCGGTTTTCCCGGTAATCCGTATTTGTG (site CTAGTATCTCA)
recombinant UMI read abundance (log10): 2.97

CTAGTATCATGGACCGGTTTTCCCGGTAATCCGTATTTGTG (site CTAGTATCTGT)
recombinant UMI read abundance (log10): 0

CTAGTCACATGGACCGGTTTTCCCGGTAATCCGTATTTGGG (site CAAGTCACTCC)
recombinant UMI read abundance (log10): 0.00773

CTAGTCACATGGACCGGTTTTCCCGGTAATCCGTATTTGGG (site CCAGTCACTCC)
recombinant UMI read abundance (log10): 0.0093

CTAGTCACATGGACCGGTTTTCCCGGTAATCCGTATTTGGG (site CGAGTCACTCC)
recombinant UMI read abundance (log10): 0.00732

CTAGTCACATGGACCGGTTTTCCCGGTAATCCGTATTTGGG (site CTAGTCACTCC)
recombinant UMI read abundance (log10): 0.00791

CTAGTGCCATGGACCGGTTTTCCCGGTAATCCGTATTTGAC (site CTAGTATCTGT)
recombinant UMI read abundance (log10): 0.948

CTAGTGCCATGGACCGGTTTTCCCGGTAATCCGTATTTGAC (site CTAGTGCCTGT)
recombinant UMI read abundance (log10): 0.95

CTAGTTTCATGGACCGGTTTTCCCGGTAATCCGTATTTGAC (site CTAGTATCTGT)
recombinant UMI read abundance (log10): 2.19

CTAGTTTCATGGACCGGTTTTCCCGGTAATCCGTATTTGAC (site CTAGTCTCTGT)
recombinant UMI read abundance (log10): 1.74

CTAGTTTCATGGACCGGTTTTCCCGGTAATCCGTATTTGAC (site CTAGTGTCTGT)
recombinant UMI read abundance (log10): 0

CTAGTTTCATGGACCGGTTTTCCCGGTAATCCGTATTTGAC (site CTAGTTTCTGT)
recombinant UMI read abundance (log10): 2.05

CTATAACCATGGACCGGTTTTCCCGGTAATCCGTATTTGGA (site CTATAACCTTC)
recombinant UMI read abundance (log10): 0.0031

CTATCATCATGGACCGGTTTTCCCGGTAATCCGTATTTGCT (site CAATCATCTAG)
recombinant UMI read abundance (log10): 0.957

CTATCATCATGGACCGGTTTTCCCGGTAATCCGTATTTGCT (site CCATCATCTAG)
recombinant UMI read abundance (log10): 0.932

CTATCATCATGGACCGGTTTTCCCGGTAATCCGTATTTGCT (site CGATCATCTAG)
recombinant UMI read abundance (log10): 0

CTATCATCATGGACCGGTTTTCCCGGTAATCCGTATTTGCT (site CTATCATCTAG)
recombinant UMI read abundance (log10): 2.06

CTATCGACATGGACCGGTTTTCCCGGTAATCCGTATTTGTT (site CAATCGACTAA)
recombinant UMI read abundance (log10): 0.0124

CTATCGACATGGACCGGTTTTCCCGGTAATCCGTATTTGTT (site CCATCGACTAA)
recombinant UMI read abundance (log10): 0.0135

CTATCGACATGGACCGGTTTTCCCGGTAATCCGTATTTGTT (site CGATCGACTAA)
recombinant UMI read abundance (log10): 0.0084

CTATCGACATGGACCGGTTTTCCCGGTAATCCGTATTTGTT (site CTATCGACTAA)
recombinant UMI read abundance (log10): 1.1

CTATGACCATGGACCGGTTTTCCCGGTAATCCGTATTTGAG (site CTATGACCTCT)
recombinant UMI read abundance (log10): 0.00436

CTATGATCATGGACCGGTTTTCCCGGTAATCCGTATTTGAC (site CTAGTATCTGT)
recombinant UMI read abundance (log10): 0

CTATGATCATGGACCGGTTTTCCCGGTAATCCGTATTTGAC (site CTATGATCTGT)
recombinant UMI read abundance (log10): 2.73

CTATGCACATGGACCGGTTTTCCCGGTAATCCGTATTTGTA (site ATATGCACTTA)
recombinant UMI read abundance (log10): 0.00544

CTATGCACATGGACCGGTTTTCCCGGTAATCCGTATTTGTA (site CTATGCACTTA)
recombinant UMI read abundance (log10): 1.82

CTATGCACATGGACCGGTTTTCCCGGTAATCCGTATTTGTA (site GTATGCACTTA)
recombinant UMI read abundance (log10): 0.00869

CTATGCACATGGACCGGTTTTCCCGGTAATCCGTATTTGTA (site TTATGCACTTA)
recombinant UMI read abundance (log10): 0.013

CTATGTTCATGGACCGGTTTTCCCGGTAATCCGTATTTGTC (site CTATGTTCTGA)
recombinant UMI read abundance (log10): 2.29

CTATTATCATGGACCGGTTTTCCCGGTAATCCGTATTTGAA (site CTATTATCTTT)
recombinant UMI read abundance (log10): 1.79

CTATTATCATGGACCGGTTTTCCCGGTAATCCGTATTTGGC (site CTAGTATCTGT)
recombinant UMI read abundance (log10): 0

CTATTATCATGGACCGGTTTTCCCGGTAATCCGTATTTGGC (site CTATTATCTGC)
recombinant UMI read abundance (log10): 2.56

CTATTTCCATGGACCGGTTTTCCCGGTAATCCGTATTTGCG (site CTATTTCCTCG)
recombinant UMI read abundance (log10): 0.264

CTCAAATCATGGACCGGTTTTCCCGGTAATCCGTATTTGAA (site CTCAAATCTTT)
recombinant UMI read abundance (log10): 0.789

CTCAATCCATGGACCGGTTTTCCCGGTAATCCGTATTTGTT (site CGGAATCCTAA)
recombinant UMI read abundance (log10): 0

CTCAATCCATGGACCGGTTTTCCCGGTAATCCGTATTTGTT (site CTCAATCCTAA)
recombinant UMI read abundance (log10): 1.41

CTCAATGCATGGACCGGTTTTCCCGGTAATCCGTATTTGGG (site CTCAATGCTCC)
recombinant UMI read abundance (log10): 0

CTCAGATCATGGACCGGTTTTCCCGGTAATCCGTATTTGCA (site CTCAGATCTTG)
recombinant UMI read abundance (log10): 1.82

CTCCAGTCATGGACCGGTTTTCCCGGTAATCCGTATTTGAG (site CTCCAGTCTCT)
recombinant UMI read abundance (log10): 0.842

CTCCCAACATGGACCGGTTTTCCCGGTAATCCGTATTTGAG (site CTCCCAACTCT)
recombinant UMI read abundance (log10): 0.687

CTCCCAACATGGACCGGTTTTCCCGGTAATCCGTATTTGAG (site CTCCCCACTCT)
recombinant UMI read abundance (log10): 0.00702

CTCCCAACATGGACCGGTTTTCCCGGTAATCCGTATTTGAG (site CTCCCGACTCT)
recombinant UMI read abundance (log10): 0.0167

CTCCCAACATGGACCGGTTTTCCCGGTAATCCGTATTTGAG (site CTCCCTACTCT)
recombinant UMI read abundance (log10): 0.00578

CTCCCTCCATGGACCGGTTTTCCCGGTAATCCGTATTTGAG (site CTCCCTACTCT)
recombinant UMI read abundance (log10): 0.00615

CTCCCTCCATGGACCGGTTTTCCCGGTAATCCGTATTTGAG (site CTCCCTCCTCT)
recombinant UMI read abundance (log10): 0.0401
